Patent US20070031485A1, “Pharmaceutical composition having a cationic excipient” (priority 2003, published 2007)
Where two headings read alike, the source gives them in different places.

How the values were obtained:
[1] = Critical micelle concentration; type: physicochemical
[2] = type: physicochemical; details: buffer
From the text: Surface-active betaine esters are even more susceptible to alkaline hydrolysis than non-surface active esters. The reason for the increased reactivity of surface-active betaine esters is that the ester bond will hydrolyse more readily when the surfactants are in the form of aggregates, i.e. micelles. Like all other surfactants, surface-active betaine esters form micelles at a certain concentration, the CMC, and further increase of the surfactant concentration just leads to the formation of more micelles; the concentration of free surfactant molecules stays constant. In the vast majority of applications of cationic surfactants the concentration is far above the CMC, which means that almost all surfactants are in an aggregated form. The micelles of betaine ester surfactants are highly positively charged since all the quaternary ammonium groups are located at the surface of the aggregate. The positive charges must be compensated for by negatively charged ions, so-called counterions. All types of negative ions present in the solution, including hydroxyl ions, will accumulate at the micelle surface. This means that the local concentration of hydroxyl ions will be higher in the vicinity of the micelle than in the bulk, or, differently expressed, the local pH around the micelles will be higher than in the bulk. […]

[3] = Stabilization of aqueous dispersion of cholesterol particles, visual appearance; type: physicochemical; details: 1% cholesterol in 0.1% w/w (3 mM) dodecyl betainate solution
Protocol: The ability of dodecyl betainate to stabilize aqueous dispersions of hydrophobic particles was investigated in samples containing 1% cholesterol (of lanolin origin, Fluka) in pure water and in dodecyl betainate solutions of varying concentration. The samples were prepared by weighing the components into screw-capped glass vials that were first shaken, then kept in an ultrasonic bath for 5 minutes and finally shaken again before left for inspection. The table below presents the visual appearance of samples with different surfactant concentrations at different times.

[4] = tested on: intestinal mucosa (small intestine segments)
From the text: (§1) A modified Using diffusion chamber with an exposed tissue area 1.78 cm^2 was used in the experiments. 15 to 20 cm of the small intestine, distal to the Ligament of Treitz was removed from rats (male Sprague-Dawley, 400-500 g) and used in the tests. Three rats and three segments per rat were included in each experimental group. The passage of different marker molecules, ^14C-mannitol and FITC-dextran (4400 FD4), from the mucosal to the serosal chamber were expressed as apparent permeability coefficient (Papp). The apparent permeability coefficient (Papp) to mannitol and FITC-dextran 4.400 across the intestinal mucosa was calculated from the equation: Papp (cm/s)×10-6)=dc/dt * (V/(A*C0)), where dc/dt is the change of the serosal concentration over time (mol/L/sec), V is the volume in the reservoir of the serosal side (cm^3), CO is the initial concentration of the marker in the mucosal reservoir (mol/L), and A is the exposed intestinal area in the chamber (cm^2) .
(§2) The difference in electric potential over the segments was measured before and after the experiment.

[5] = tested on: Erythrocytes from rats
Protocol: Erythrocytes from rats were washed 3 times and suspended in saline solution (0.9%) to a volume fraction of 0.025. The hemolys experiments were performed by mixing the erythrocyte suspension with surfactant solutions in a 1:1 ratio, thereby giving a finale erythrocyte volume fraction of 0.0125 and a surfactant concentration as stated in the figure. The samples were then incubated at 37° C. for 1 hour and centrifuged at 2000 g for 10 minutes. Aliquots of the supernatant was mixed with an equal volume of 15 mM C14TAC before the hemoglobin content was measured spectrophotometrically on a Lab systems iEMS Reader MF at 540 nm.
The concentrate was dispersed in saline solution by gentle stirring at room temperature just before the experiment. The resulting aqueous dispersion was tested in the same way as stated above for the surfactant solution.
The concentrations given in the figure represent the amounts of cationic surfactant in the tested solutions. […] The phosphatidyl choline used is Epikuron 200 from Degussa BioActives, a pharmaceutical grade product of soybean origin. All data are normalized to the absorbance obtained from hemolysis by the 0.5 mM tetradecyltrimethylammonium chloride sample.

[6] = tested on: intestinal mucosa (small intestine segments); assay: Using (Ussing) diffusion chamber experiments, passage of marker molecules across rat small intestine; details: betaine ester containing solution (0.5 % w/w) compared to control
From the text: as §1, §2

| SMILES | critical micelle concentration (CMC) [1] [mM] | half-life (hydrolysis) [2] [h] | Visual appearance after 5 min. [3] | permeability of intestinal segments for marker molecules [4] | toxicity to red blood cells (relative haemolytic effect) ([5]; at low concentrations, 37° C., 1 hour, compared with C14TAC) | toxicity to red blood cells (relative haemolytic effect) ([5]; betaine ester co-formulated with phosphatidyl choline (weight ratio 20 to 80)) | damage to segments, potential difference over the segments before and after treatment [6] |
| --- | --- | --- | --- | --- | --- | --- | --- |
| CCCCCCCCCCCCCC[N+](C)(C)C.[Cl-] [C14TAC, tetradecyltrimethylammonium chloride, reference compound] | 2.5 |  |  |  |  |  |  |
| CCCCCCCCCCCCOC(=O)C[N+](C)(C)C [dodecyl betainate] | 3.1 | 1.5 | Turbid dispersion | not affected | lower than that of the stable surfactant C14TAC | further lowered | no increased damage |
| CCOC(=O)C[N+](C)(C)C [ethyl betainate, reference compound] |  | 9 |  |  |  |  |  |
